From patent US20240033244A1, “COMPOSITIONS AND METHODS FOR INHIBITING YTHDF1” (SHANGHAI INSTITUTE OF MATERIA MEDICA, CHINESE ACADEMY OF …, priority 2020, published 2024)

Experiments:
[1] = target: T1, YTHDF1 (361-559) (Homo sapiens, UniProt Q9BYJ9); experiment: Fluorescence polarization (FP) assay, inhibition of m6A-containing mRNA binding to YTHDF1; settings: read-out: IC50, inhibition of interaction between m6A-containing mRNA and YTHDF1
T1 construct: GST (N, cleaved yes); made in house; host or cells: E. coli BL21 (DE3)
T1 sequence (Q9BYJ9 with tags, fused parts or gaps): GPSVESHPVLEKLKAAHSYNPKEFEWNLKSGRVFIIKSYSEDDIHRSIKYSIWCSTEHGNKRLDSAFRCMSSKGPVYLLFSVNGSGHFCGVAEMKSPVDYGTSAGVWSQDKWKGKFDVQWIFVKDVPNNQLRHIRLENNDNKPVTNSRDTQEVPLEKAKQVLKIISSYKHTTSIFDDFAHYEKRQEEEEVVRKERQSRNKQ
Method: As for activity tests, 1.25 μM YTHDF1 (361-559) was incubated with candidate compounds diluted to concentrations as indicated for 30 minutes. The subsequent steps were similar to that of HTS. And an equal amount of DMSO was used as the negative control.

[2] = target: T1, YTHDF1 (361-559); experiment: Isothermal Titration Calorimetry (ITC); type: binding; settings: 25° C.
Method: Purified YTHDF1 (361-559) was dialyzed at 4° C. overnight in dialysis buffer (20 mM Hepes (pH 7.4) and 200 mM NaCl). Then dialyzed protein was diluted to 50 μM with dialysis buffer. […] Isothermal titration calorimetry (ITC) was conducted on a Microcal ITC 200 isothermal titration calorimeter (GE Healthcare) at 25° C. 200 μL 50 μM YTHDF1 (361-559) was filled in the sample cell and constantly stirred at 750 rpm; 40 μL 1 mM SAA was filled in the syringe. […] Then in order to make the titration effect more obvious, the nineteen […] injections were changed after calculation into five 2.5 μL injections followed by fourteen 1.9 μL injections. […] The experimental data was analyzed via Microcal ORIGIN (v7.0) software (Microcal Software).
Then, the binding affinity between SAA and YTHDF1 was evaluated. The Isothermal Titration Calorimetry (ITC) assay was performed to accurately test the equilibrium dissociation constants (Kd) between YTHDF1 and SAA. The ITC assay was conducted on a Microcal iTC200 isothermal titration calorimeter (GE Healthcare) for three times independently. Briefly, freshly purified YTHDF1 (50 μM) was titrated with 1 mM SAA at 25° C. in a buffer comprising 20 mM Hepes (pH 7.4) and 200 mM NaCl.

[3] = system: FLT3L-DCs; experiment: FLT3L-DC direct-priming of OT-I T cells in vitro with OT-I peptide; type: cell-based, mouse; settings: 1 μg/mL OT-I peptide
Method: Then antigen-obtained DCs were purified and co-cultured with naïve T cells from OT-1 mice at a ratio of 1:10 for 96 h. The co-culture medium was 1640 RPMI contains 10% fetal bovine with or without 1 μg/mL OT-1 (OVA 257-264) peptide. For ex vivo DCs cross-presentation assay, four types of DCs (migration CD11b DC, migration CD103′ DC, resident CD11b DC and resident CD8^+ DC) were sorted in draining lymph node from SAA treated B16-OVA bearing mice at day 12. These DCs were co-cultured with OT-1 naïve T cells in the ratio of 1:10 for 96 hours with or without OT-1 peptide. Supernatant IFN-γ production was detected via CBA assay.
Dendritic cells can activate T cells through cross-priming and/or direct-priming. In direct-priming process, DCs could stimulate T cells via surface co-stimulatory molecules such as CD80/CD86 or cytokines related with T cell activation. To evaluate whether the direct priming function was also affected after SAA administration, bone marrow derived cells (wildtype or Ythdf1 gene deficient) were cultured with FLT3L for 9 days to get FLT3L-DC and these DCs were treated with 10 μM SAA for 12 hours, then, FLT3L-DCs were co-cultured with necrotic B16-OVA tumor cell for 6 hours. […] IFN-γ production was assessed by IFN-γ cytometric bead array. […] Then, IFN-γ production was assessed by IFN-γ cytometric bead array.

[4] = system: tumor infiltrating T cells; experiment: Flow cytometry of exhaustion markers on tumor infiltrating T cells; type: in vivo, mouse; settings: 14 days after tumor inoculation
Method: For flow cytometry analysis and DCs sorting, tumors, draining lymph nodes were gathered from mice and digested with 100 U/mL collagenase IV and 20 μg/mL DNase I at 37° C. for 40 min. Digestion was stopped by FACS buffer (PBS contains 2% FBS and 1 mM EDTA) and samples were filtered through 70-μm cell strainer. Samples were stained by specific antibodies in FACS buffer on ice for 30 min. Antibody information was described in Table 1 below. All samples were washed with FACS buffer after staining, cells were analyzed on BD Fortessa and sorted by AriaIII.
In addition, terminally exhausted T cells (PD-1 and Tim-3 double positive cells) were assessed 14 days after tumor inoculation with SAA treatment, and it was observed that the frequency of these tumor infiltrating terminally exhausted T cells (PD-1^+Tim-3^+) decreased in SAA treated mice (FIG. 18b), confirming the enhanced anti-tumor activity.

O=C(/C=C/c1ccc(O)c(O)c1/C=C/c1ccc(O)c(O)c1)O[C@H](Cc1ccc(O)c(O)c1)C(=O)O [SAA, Salvianolic Acid A]
IC50 [1]: 2.3 ± 0.11 µM | entropy change ΔS [2]: 13.6 cal/mol/deg | Kd ([2]; 50 μM YTHDF1 titrated with 1 mM SAA): 5.71 µM | FLT3L-DC direct-priming function (IFN-γ production) [3]: could not enhance | CXCR5 expression of PD-1low population [4]: much more CXCR5 than DMSO group | frequency of tumor infiltrating terminally exhausted T cells (PD-1+Tim-3+) [4]: decreased
